This is an account of results in patent publication US11883435B2, “Compositions and methods for treating a clinical condition through the use of hematopoietic stem cells” (Indiana University Research and Technology Corporation, priority 2017, dated 2024).

For test [1], the system named is mouse bone marrow HSCs. Nature of the test: Number of mouse bone marrow HSCs collected and processed with antioxidants or epigenetic inhibitors (flow cytometry). In kind it is cell-based. The conditions noted are these: collected in ambient air. For orientation: Flow cytometry measures light scatter and fluorescence of single cells or particles in a stream.
The test system of test [2] is mouse bone marrow HSC. The conditions noted are these: ambient air (about 21% O2); cited from earlier work.
In test [3] the test system is human cord blood HSC. Particulars: ambient air (about 21% O2); cited from earlier work.

Regarding `O=C1O[C@H]([C@@H](O)CO)C(O)=C1OP(=O)(O)O` [AAP, ascorbic acid 2-phosphate], the “increase in numbers of HSC” value in test [1] (AAP alone (0.22 mM)) is on record as “not AAP alone, significantly increased”.

Turning to cyclosporine A, the “numbers of HSC” value in test [2] and in test [3] was “increased numbers of HSC” throughout.

Turning to `CC(=O)N[C@@H](CS)C(=O)O` [NAC, N-Acetyl-Cysteine], the “change in numbers of collected HSCs” value in test [1] (1 mM NAC) was “no significant change”. Further, in test [1] (higher dose of NAC (3 mM)), the “increase in numbers of collected HSCs” value is recorded as “no increase”.
